Measured values reported in patent US20060142202A1, “Compositions and methods for targeted delivery of immune response modifiers” (3M Innovative Properties Company, priority 2000, published 2006).

Compound | melting point [°C]
CCCc1nc2c(N)nc3cc(OCCCCCCNC(=O)c4ccc(N=[N+]=[N-])cc4O)ccc3c2s1 [IRM9, N-{6-[(4-Amino-2-propyl[1,3]thiazolo[4,5-c]quinolin-7-yl)oxy]hexyl}-4-azido-2-hydroxybenzamide] | 127 to 128
CCOCc1nc2c(N)nc3ccccc3c2n1CC(C)(C)NC(=O)CCC(=O)NN [IRM5, N-{2-[4-Amino-2-(ethoxymethyl)-1H-imidazo[4,5-c]quinolin-1-yl]-1,1-dimethylethyl}-4-hydrazino-4-oxobutanamide] | 203 to 204.6
